Experimental findings from US9000044B2, “Substituted naphthylacetic acids” (Hoffmann-La Roche Inc., priority 2012, dated 2015) are described below.

One assay concerns Th2 cells. The experiment in a line: DK-PGD2-Induced IL-13 Production Assay in Th2 Cells. It is filed as cell-based. The note with it: human Th2 cells; 500 nM DK-PGD2; 4 hrs at 37° C.; IL-13 by ELISA. The procedure:
DK-PGD2-Induced IL-13 Production Assay in Th2 Cells
Cultures of Th2 cells were established from blood of healthy human volunteers according to the following procedure. Peripheral blood mononuclear cells (PBMC) were first isolated from 50 mL of fresh blood by Ficoll-Hypaque density gradient centrifugation, followed by CD4^+ cell purification using a CD4^+ T Cell Isolation Kit II (from Miltenyi Biotec Inc.). The CD4^+ T cells were then differentiated to Th2 cells by culturing the cells in X-VIVO 15® medium (from Cambrex BioScience Walkersville Inc.) containing 10% human AB serum (serum of blood type AB from Invitrogen Corporation), 50 U/mL of recombinant human interleukin-2 (rhIL-2) (from PeproTech Inc.) and 100 ng/mL of recombinant human interleukin-4 (rhIL-4) (from PeproTech Inc.) for 7 days. […] In general, 70% to 80% of the Th2 cells used in the assay are CRTH2-positive when analyzed by fluorescence-activated cell sorting using the BM16 antibody (as previously described) conjugated to Alexa Fluor 647.
The spontaneous production of IL-13 by Th2 cells was determined in the absence of DK-PGD2 stimulation and the value was subtracted from that in the presence of each compound for percent inhibition and IC50 calculations. […]
Background: An ELISA detects its analyte on a solid surface through an enzyme-linked reagent.

In assay [1] the target is T1, human CRTH2 (Homo sapiens (Human), UniProt Q9Y5Y4). The assay can be described thus: Calcium Flux Assay Using Fluorometric Imaging Plate Reader (FLIPR). The note with it: CHO-K1 cells with G-alpha 16 and human CRTH2; inhibition of DK-PGD2 ligand-induced Ca2+ flux. It is filed as cell-based. (Calcium assays in cells follow changes in intracellular calcium, usually with a dye or a luminescent sensor.)
T1 sequence (Q9Y5Y4 whole entry): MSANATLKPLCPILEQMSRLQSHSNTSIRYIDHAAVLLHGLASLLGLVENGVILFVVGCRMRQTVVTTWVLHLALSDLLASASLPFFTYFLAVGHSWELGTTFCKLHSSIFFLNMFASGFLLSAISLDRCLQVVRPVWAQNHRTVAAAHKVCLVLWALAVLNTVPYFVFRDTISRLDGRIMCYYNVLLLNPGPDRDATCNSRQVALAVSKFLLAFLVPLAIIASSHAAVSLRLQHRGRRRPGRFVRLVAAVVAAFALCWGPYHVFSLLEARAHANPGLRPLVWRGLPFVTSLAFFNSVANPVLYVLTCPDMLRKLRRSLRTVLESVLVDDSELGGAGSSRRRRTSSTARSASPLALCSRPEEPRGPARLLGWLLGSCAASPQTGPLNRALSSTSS

Assay [2] deals with T1, human CRTH2. The experiment in a line: Human CRTH2 Receptor Binding Assay (whole cell, [3H]ramatroban). The note with it: CHO-K1 cells expressing human CRTH2 and G-alpha16; 20 nM [3H]ramatroban; 1 hour, room temperature. From the text: Human CRTH2 Receptor Binding Assay
A whole cell receptor binding assay using [^3H]ramatroban as the competing radioactive ligand was employed to evaluate the compound binding activity to human CRTH2. The radioactive ligand [^3H]ramatroban was synthesized according to Sugimoto et. al. (Eur. J. Pharmacol. 524, 30-37, 2005) to a specific activity of 42 Ci/mmol.
A cell line stably expressing human CRTH2 was established by transfecting CHO-K1 cells with two mammalian expression vectors that harbored human CRTH2 and G-alpha16 cDNAs, respectively, using FuGene® 6 transfection reagent (from Roche). Stable clones expressing CRTH2 were selected by staining each clone with BM16 (BD Pharmingen™ from BD Biosciences, a division of Becton, Dickinson and Company), which is a rat monoclonal antibody to human CRTH2. The cells were maintained as monolayer cultures in Ham's F-12 medium containing 10% fetal bovine serum, 100 units/mL penicillin, 100 μg/mL streptomycin, 2 mM glutamine, 0.5 mg/mL G418 (geneticin) for CRTH2, and 0.2 mg/mL hygromycin-B (for G-alpha 16). For whole cell receptor binding assay, the monolayer cells were rinsed once with PBS (phosphate buffered saline), dissociated using ethylenediaminetetraacetate (Versene™ EDTA from Lonza Inc.), and suspended in PBS containing 10 mM MgCl2 and 0.06% BSA (bovine serum albumin) at 1.5×10^6 cells/mL.
The binding reactions (0.2 mL) were performed in 96-well plates at room temperature in PBS containing 1.5×10^5 cells, 10 mM MgCl2, 0.06% BSA, 20 nM [^3H]ramatroban, and test compound at various concentrations. After 1 hour of binding reactions, the cells were harvested on GF™/B filter microplates (microtiter plates with embedded glass fiber from PerkinElmer, Inc.) and washed 5 times with PBS using a Filtermate™ Harvester (a cell harvester that harvests and washes cells from microplates from PerkinElmer, Inc.). The radioactivities bound to the cells were determined using a microplate scintillation counter (TopCount® NXT, from PerkinElmer, Inc.) after adding 50 μL of Microscint™ 20 scintillation fluid (from PerkinElmer, Inc.) to each well of the filter plates. The radioactivity from non-specific binding was determined by replacing compound with 10 μM of 15(R)-15-methyl PGD2 (from Cayman Chemical Company) in the reaction mixtures. The radioactivity bound to the cells in the absence of compound (total binding) was determined by replacing compound with 0.25% of DMSO (dimethyl sulfoxide) in the reaction mixture. Specific binding data were obtained by subtracting the radioactivity of non-specific binding from each binding data.
The IC50 value is defined as the concentration of the tested compound that is required for 50% inhibition of total specific binding. In order to calculate the IC50 value, the percent inhibition data were determined for 7 concentrations for each compound. The percent inhibition for a compound at each concentration was calculated according to the following formula, [1-(specific binding in the presence of compound)/(total specific binding)]×100. The IC50 value was then obtained by fitting the percent inhibition data to a sigmoidal dose-response (4 parameter logistic) model in the XLfit® software Excel add-in program [from ID Business Solutions Ltd., model 205, where F(x)=(A+(B−A)/(1+((C/x)^D)))].

The term IC50 denotes the concentration needed to halve the response being measured. With `Cc1c(CC(=O)O)cc2ccc(Cl)cc2c1-c1ccc(S(=O)(=O)N2CCCC2)cc1` [Example 33, {6-Chloro-3-methyl-4-[4-(pyrrolidine-1-sulfonyl)-phenyl]-naphthalen-2-yl}-acetic acid], the IC50 in the assay on Th2 cells stood at 8 nM; at human CRTH2 [1], 0.8 nM.

Consider `Cc1ccccc1S(=O)(=O)c1ccc(-c2c(C)c(CC(=O)O)cc3ccc(F)cc23)cc1` [Example 1, {6-Fluoro-3-methyl-4-[4-(toluene-2-sulfonyl)-phenyl]-naphthalen-2-yl}-acetic acid], for which the IC50 worked out at 0.3 nM at human CRTH2 [1] and 2.9 nM on human CRTH2 [2].
